Results: US20100168165A1, “METHOD OF TREATING DISEASE INVOLVING MYELIN AND/OR AXONAL LOSS” (The United States of America, as represented by the …, priority 2007, published 2010)
Several values for one entry are separate records, joined by “and”; a condition that tells them apart may be missing. Equal values may be shown once.

Assays:
myelin-specific T cells = experiment: Spleen recall proliferation to myelin antigen 20 days after immunization; assay type: in vivo; conditions: three animals per group, pooled; FIG. 9
Protocol: Animals on control or Tempol feed are immunized with a myelin antigen, and the spleens are tested 20 days later for recall to antigen. Three animals per group are tested and the results are pooled (FIG. 9).

neurofilament H = experiment: Spinal cord neurofilament H in passive EAE animals; assay type: in vivo, SJL mice; design: cumulative disease score / peak disease score: scale not given here
Protocol: SJL animals are induced for disease by the passive transfer of encephalitogenic T cells as described in Example 1. Animals are placed on either Tempol or control feed. The spinal cords of the animals are analyzed 90 days post transfer.
Neurofilament staining is representative of the presence of axons. During autoimmune or demyelinating processes, the loss of neurofilament H has been associated with axonal loss.

MOG-induced active EAE = experiment: MOG-induced active EAE, switched to Tempol feed after onset of clinical signs; assay type: in vivo, mice; conditions: feed switched once 60% of animals show at least grade 1; FIG. 4
Protocol: (§1) For the EAE induction, all animals are female, 8-10 weeks of age at time of myelin protein immunization. Animals are immunized for active EAE induction with 200 μg of MOG35-55 peptide in 4 mg/ml H37Ra Mycobacterium/IFA with 200 ng pertussis toxin delivered intraperitoneally (IP) on days 0 and 2. For passive EAE induction, SJL animals are immunized with 75 μg of PLP139-151 peptide in 1 mg/ml H37Ra Mycobacterium/IFA (Difco, Detroit, Mich.). Ten days later, axillary and inguinal lymph nodes are removed and placed into culture with 5 μg/ml of PLP139-151 peptide. After 3 days, activated T cells are counted and 2 million blasted T cells are transferred IP to each SJL recipient mouse.

[1] = test system: actively induced chronic progressive EAE; experiment: Actively induced chronic progressive EAE (MOG35-55 immunization), Tempol food from 14 days before immunization; assay type: in vivo, SJL mice
Protocol: (§2) SJL mice are placed on Tempol-containing food two weeks prior to the initiation of experimental autoimmune encephalomyelitis (EAE) either by active immunization with myelin antigens or the transfer of activated encephalitogenic T cells. Animals receive bacon-flavored control food and Tempol-containing food ad libitum (Bio-Serv, Frenchtown, N.J.). The composition of the control food and Tempol-containing food is identical with exception to the addition of Tempol at a concentration of 10 mg/gram of food (Mitchell et al., Free Radic. Biol. Med., 34: 93-102 (2003)). Bacon flavored food is used to mask the taste of Tempol. All experiments with animals are carried out according to protocols approved by and on file with the National Institute of Neurological Disorders and Stoke (NINDS) Animal Care and Use Committee (ACUC).
as §1
Mice are placed on control- or Tempol-containing food 14 days (T-14) prior to immunization with MOG peptide for EAE induction (day 0=date of immunization). Mice are blindly evaluated for onset of disease and clinical scores are assigned following examination as follows: 0=no clinical signs; 1=flaccid tail; 2=paresis of one or both hind legs; 3=paralysis of one or both hind legs; 4=quadriparesis or quadriparalysis; 5=moribund. The cumulative score represents the mean of the summation of single scores recorded in each mouse over days 0 (day of immunization) to day 30 post disease induction. In this study, mice that are fed Tempol generate myelin antigen-specific T cells which are unable to cause paralytic disease in immunized mice.

inflammatory infiltrates = experiment: Inflammatory infiltrate scoring of spinal cords at peak disease, passive EAE; assay type: in vivo, mice; conditions: 5 animals per group, 11 cord levels, scale 1-5; FIG. 8
Protocol: Animals induced passively for EAE with PLP-specific T cells are examined at peak disease for assessment of inflammatory infiltrates. The spinal cords from 5 animals per group (control-fed and Tempol-fed) are examined at 11 levels spanning the entire cord and assessed according to the following scale and an average inflammatory score is calculated per animal. Degree of inflammation: 1=1-2 mild infiltrates, little to no infiltration; 2=3+ infiltrates, +/− infiltration; 3=1-2 moderate infiltrates, 1-2 mild little/mild infiltrates; 4=3+ moderate infiltrates, or 1 severe/broad with or without mild infiltrates, extensive infiltration to parenchyma present; 5=2+ severe/broad parenchyma infiltrative, with or without additional mild/moderate associated infiltrates to parenchyma.

[2] = test system: passively induced chronic progressive EAE; experiment: Passively induced chronic progressive EAE (transfer of PLP139-151-activated encephalitogenic T cells); assay type: in vivo, SJL mice
Protocol: as §2, §1
Mice are placed on control- or Tempol-containing food 14 days (T-14) prior to receipt of encephalitogenic T cells (day 0=date of T cell transfer). Mice are blindly evaluated for onset of disease and clinical scores were assigned following examination as follows: 0=no clinical signs; 1=flaccid tail; 2=paresis of one or both hind legs; 3=paralysis of one or both hind legs; 4=quadriparesis or quadriparalysis; 5=moribund. The cumulative score represents the mean of the summation of single scores recorded in each mouse over days 0 (day of T cell transfer) to day 48 post disease induction. PLP-specific T cells are capable of causing severe paralytic disease in the brain and spinal cord of control fed mice, yet Tempol-fed mice are protected showing decreased incidence of disease as well as reduced severity.
SJL animals are induced for disease by the passive transfer of encephalitogenic T cells as described in Example 1. Animals are placed on either Tempol or control feed at either (i) 2 weeks prior to transfer, (ii) at the time of transfer, or (iii) at the onset of disease.

[3] = test system: edema associated with inflammation and tissue damage; experiment: Spinal cord T2 relaxation times (edema) in passive EAE; assay type: in vivo, SJL mice
Protocol: SJL animals are induced for disease by the passive transfer of encephalitogenic T cells as described in Example 1. Animals are placed on either Tempol or control feed. In a spinal cord histogram, T2 relaxation times typically increase due to inflammation and edema during CNS autoimmunity/disease during EAE. […] In the control-fed animals, the spinal cord T2 relaxation times shifted to higher values due to edema and inflammation.
The average T2 relaxation times are measured for SJL passively-induced EAE animals on Tempol 2 weeks prior to T cell transfer. Five scans are collected per animal, which are pooled from: 2 control animals (10 total), 4 control-fed EAE animals (20 total), and 4 Tempol-fed EAE animals (20 total).

leukocytic infiltration = experiment: Leukocyte count by flow cytometry in actively induced EAE; assay type: in vivo, C57BL/6J mice
Source text: Animals are placed on either Tempol or control feed, and the number of leukocytes are counted via flow cytometry.

[4] = individual animals, passive EAE
[5] = clinical score 0-5, Tempol food from T-14, n = 10

CC1(C)CC(O)CC(C)(C)N1[O] [Tempol, 4-hydroxy-2,2,6,6-tetramethylpiperidine-1-oxyl]
Generation of myelin-specific T cells by proliferative responses (myelin-specific T cells): does not reduce the generation of myelin-specific T cells
cumulative disease score (neurofilament H; [4]): 14 and 103.25 and 83.75 and 105.25 and 28.25 and 83 and 0.5 and 87.25 and 28.75
peak disease score (neurofilament H; [4]): 2.25 (2×) and 3.5 (4×) and 2.75 and 2.5 and 0
average (relative amount of spinal cord neurofilament H) (neurofilament H; individual animals, spinal cords analyzed 90 days post transfer): 0.9652 and 0.4487 and 0.7 and 0.3589 and 0.8499 and 0.3415 and 0.9171 and 0.9553 and 1.104
Preservation of neurofilament H (neurofilament H; versus control feed, FIG. 5 and Table 3): greater preservation of neurofilament H
Time after feed administration until disease severity drops off (MOG-induced active EAE): ≤ 2 days
Effect on incidence and severity of EAE ([1]; Table 1 and FIG. 1): reduces the incidence and severity
Incidence of disease ([1]; Tempol 10 mg/gram of food ad libitum from 14 days prior to MOG immunization, n = 10): .30
Average peak disease severity [1, 5]: 0.83
Average cumulative disease score ([1]; clinical score 0-5 summed over day 0 to day 30, Tempol food from T-14, n = 10): 2.05
Inflammatory infiltrates at peak disease (inflammatory infiltrates): limits the inflammatory infiltrates
Effect on incidence and severity of EAE ([2]; Table 2 and FIG. 2): reduces the incidence and severity
Incidence of disease ([2]; Tempol 10 mg/gram of food from 14 days prior to T cell transfer, n = 10): .70
Average peak disease severity [2, 5]: 2.81
Average cumulative disease score ([2]; clinical score 0-5 summed over day 0 to day 48, Tempol food from T-14, n = 10): 33.9
Clinical sign at peak disease ([2]; control animals: complete hind limb paralysis with forelimb weakness): hind limb paresis
Severity of clinical symptoms and cumulative disease score by time of administration ([2]; feed started 2 weeks prior to transfer, at transfer, or at disease onset, FIG. 3): reduces the severity of clinical symptoms and the cumulative disease score regardless of the time of administration
Edema and inflammation by average T2 relaxation times ([3]; Tempol 2 weeks prior to T cell transfer, to levels observed in healthy animals, FIG. 7): limits (e.g., reduces) the edema and inflammation
T2 relaxation times, spinal cord histogram ([3]; versus control-fed EAE animals): lower T2 relaxation times
Inflammatory infiltrates at peak disease (leukocytic infiltration; actively induced EAE, Table 4): limits the inflammatory infiltrates
Microglial activation (upregulation of MHC class II expression) (leukocytic infiltration; compared to animals on control feed): reduces the degree of microglial activation
% B cell (leukocytic infiltration; flow cytometry, peak disease): 1.3% and 2.8%
% CD3 (leukocytic infiltration; flow cytometry, peak disease): 11.1% and 11.2%
% mac/gran (leukocytic infiltration; flow cytometry, peak disease): 10.1% and 20.2%
% microglia (leukocytic infiltration; flow cytometry, peak disease): 68.5% and 55.6%
% total CD45 hi (leukocytic infiltration; flow cytometry, peak disease): 21.0% and 33.8%
CD4:CD8 ratio (leukocytic infiltration; flow cytometry, peak disease): 1.7 and 1.5
Cell # (leukocytic infiltration; flow cytometry, peak disease): 1.0 ×10^6
